Source: patent US10029014B2, “Synthesis of novel asymmetric bow-tie PAMAM dendrimer-based conjugates for tumor-targeting drug delivery” (priority 2013, dated 2018)
Like-named read-outs stand apart in the source and are kept apart here.

Key:
MX-1 = assay: Cytotoxicity assay, MTT method, MX-1 cells; conditions: read-out: Cytotoxicity (IC50, nM) MX-1
in vitro = conditions: human
ID-8 = assay: Cytotoxicity assay, MTT method, ID-8 cells; conditions: read-out: Cytotoxicity (IC50, nM) ID-8
WI-38 = assay: Cytotoxicity assay, MTT method, WI-38 cells; conditions: read-out: Cytotoxicity (IC50, nM) WI-38; 72 hours of drug exposure at 37° C. under 5% CO2
[1] = 72 hours of drug exposure at 37° C. under 5% CO2

`CC(=O)O[C@H]1C(=O)[C@@]2(C)[C@H]([C@H](OC(=O)c3ccccc3)[C@]3(O)C[C@H](OC(=O)[C@H](O)[C@@H](NC(=O)c4ccccc4)c4ccccc4)C(C)=C1C3(C)C)[C@]1(OC(C)=O)CO[C@@H]1C[C@@H]2O` [Paclitaxel] gave an IC50 (MX-1; Homo sapiens, MX1, 72 h) of 3.83 nM, an IC50 at 72 h (in vitro) of 175 nM and an IC50 (ID-8; Mus musculus, ID8, 72 h) of 21.2 nM.

Molecule `CC(=O)O[C@@]12CO[C@@H]1C[C@H](O)[C@@]1(C)C(=O)[C@H](OC(=O)C3CC3)C3=C(C)[C@@H](OC(=O)[C@H](O)[C@H](C=C(C)C)NC(=O)OC(C)(C)C)C[C@@](O)([C@@H](OC(=O)c4ccccc4)[C@H]21)C3(C)C` [SB-T-1214] has an IC50 (MX-1; [1]) of 2.9 nM, an IC50 (WI-38) of 4.14 nM and an IC50 (ID-8; [1]) of 1.89 nM.
